Earlier results on seven compounds are cited in US20230355898A1, “NEBULIZER AND NEBULIZED ANTI-VIRALS” (priority 2020, published 2023).

SMILES strings stand for the structures. Counter-ions that a name gives are not always drawn. Like-named read-outs stand apart in the source and are kept apart here.

Series [1] relates to SARS-CoV-2. The following applies: for SARS-CoV-2 viral load measured by RT-qPCR of the viral N transcript: COVID-19 hamster model, Intraperitoneal (IP) administration; for prophylactic efficacy in reducing SARS-CoV-2 infection: hamsters, 50 mg/kg SC QD, virus intranasal or by association with nasally infected animals; for reduction in viral load or change in disease progression: Rosenke. (Quantitative PCR measures a nucleic acid by following its amplification.)

For series [2], the system named is SARS-CoV-2 pseudoparticulates. The following applies: drug at human blood maximum concentrations in fluid and airway channels; Si, 2020.
The test system of series [3] is SARS-CoV-2. The following applies: Vero 6, SARS-Cov-2, pretreatment; Si, 2020; read-out: Inhibition of infection IC50.
Series [4] concerns SARS-CoV-2 pseudoparticulates (pp). The following applies: Huh-7, SARS-CoV-2pp, concurrent treatment, Si, 2020.
Series [5] concerns SARS-CoV-2. As to conditions: read-out: Viral Replication EC50 @ 48 hr, Vero 6, Concurrent, Wang, 2020.
The conditions of series [6]: free base; PubChem.
The test system of series [7] is SARS-CoV-2. As to conditions: Rhesus Macaque, Rosenke, 2020.
Assay in series [8]: not given
The source holds these as a separate data set.

For series [9] the following is noted: rat, in vivo.
Where [10] appears, read: four-route infection on day 0, 6 mg/kg PO 12 18, 36, 60, 84 and 108 hours post-infection (therapeutic).
The mark [11] stands for this setting: four-route infection on day 0, 6 mg/kg PO on days −9, −2, and 5 (prophylactic).

`CCN(CC)Cc1cc(Nc2ccnc3cc(Cl)ccc23)ccc1O.Cl.Cl` [ADQ hydrochloride]: the “SARS-CoV-2 viral load measured by RT-qPCR of the viral N transcript” value in [1] (Si, 2020) is recorded as “able to reduce”. Further, the “prophylactic efficacy in reducing SARS-CoV-2 infection” value in [1] was “effective”. In addition, the “Inhibition of SARS-CoV-2pp entry into LAC epithelial cells (qPCR of viral mRNA)” value (from here on “Inhibition … (qPCR of viral mRNA)”) in [2] is reported as “inhibited”.

In general, IC50 refers to the concentration that gives 50% inhibition. As to `CCN(CC)Cc1cc(Nc2ccnc3cc(Cl)ccc23)ccc1O` [ADQ, amodiaquine], in [3], the IC50 is 10.3 µM. In series [1] (Hamster, exposure of healthy animals to nasally infected animals on day 2, 50 mg/kg SC day 1 and days 2, 3, 4, Si, 2020), the “reduction in viral load on day 4” value was 90% reduction in. In series [1] (Hamster, nasal infection on day 2, 50 mg/kg SC 1 day before infection and days 2, 3, 4, Si, 2020), the “reduction in viral load on day 4” value was 70% reduction in. Further, in [1], the “prophylactic efficacy in reducing SARS-CoV-2 infection” value is “exhibit prophylactic efficacy”. In [4], the “Inhibition of viral entry: % entry @ 1 μM” value (“Inhibition … % entry @ 1 μM” below) is listed as 10% entry @1 μM and the “Inhibition of viral entry: % entry @ 5 μM” value (shortened to “Inhibition … % entry @ 5 μM”) is reported as 30% entry @ 5 μM;. The T1/2 (human, in vivo, iv) is 0.083 days. In addition, the V2 (in vivo, iv) is given as 39 L.

Broadly, the EC50 is the concentration that produces a half-maximal response. Turning to `CCN(CC)CCCC(C)Nc1ccnc2cc(Cl)ccc12` (stereo not drawn) [CQ, chloroquine], the EC50 in series [5] is 1.13 µM. The “Inhibition … (qPCR of viral mRNA)” value in [2] is on record as “lack of efficacy”. In addition, in series [4], the “Inhibition … % entry @ 1 μM” value is reported as 10% entry @ 1 μM and the “Inhibition … % entry @ 5 μM” value is on record as 50% entry @ 5 μM;. Further, where the note is “IV in humans”, the T1/2 was 23.7 days and the V2 is 7,973 L.

As a reminder, the Log P is a log measure of how a compound divides between an organic and an aqueous phase. Turning to `CCN(CCO)CCCC(C)Nc1ccnc2cc(Cl)ccc12` (stereo not drawn) [HCQ, hydroxychloroquine], the “Log P” value in series [6] is given as 3.9. The “Inhibition … (qPCR of viral mRNA)” value in series [2] was “repeatedly failed”. Also, in [7] (setting [10]), the “effect upon viral loads at days 3, 5, or 7, or disease pathology through post-mortem on day 7” value is recorded as “No effect upon viral”. The “effect upon viral loads at days 3, 5, or 7, or disease pathology through post-mortem on day 7” value in series [7] (setting [11]) is listed as “No effect upon viral”. Moreover, in [4], the “Inhibition … % entry @ 1 μM” value is 30% entry @ 1 μM and the “Inhibition … % entry @ 5 μM” value is given as 50% entry @ 5 μM;. For the setting “human, in vivo, iv”, the T1/2 was 26.2 days. Besides, the V2 (in vivo, iv) is 26,711 L.

Take `CCN(CCO)CCCC(C)Nc1ccnc2cc(Cl)ccc12` (stereo not drawn) [HCQ sulfate, hydroxychloroquine sulfate]: the “clinical endpoints for asthma (Phase II)” value in series [8] (nebulized) is given as “did not meet its clinical endpoints”. Besides, the “tolerability of pulmonary doses” value in series [8] (nebulized hypertonic 100 mg/mL, up to 20 mg QD) is “well tolerated with minimal side effects”. Moreover, the “SARS-CoV-2 viral load measured by RT-qPCR of the viral N transcript” value in series [1] (Si, 2020) is reported as “ineffective”. The “reduction in viral load on day 5” value in [1] (Hamster, exposure to nasally infected animals on day 2, 600 mg/kg IP day 1 and 50 mg/kg IP days 2, 3, 4, 5, Kapstein, 2020) is “ineffective”. In addition, the “reduction in viral load or change in disease progression” value is “ineffective” in series [1] (Hamster, nasal infection on day 1, 50 mg/kg IP 1 hr after infection and days 2, 3 (therapeutic), 2020, 50 mg/kg); “ineffective” in [1] (Hamster, nasal infection on day 2, 50 mg/kg IP 1 day before infection and days 2, 3, 4 (prophylactic), 2020, 50 mg/kg). Also, the “reduction in viral load on day 4” value in series [1] (Hamster, nasal infection on day 2, 50 mg/kg IP 1 day before infection and days 2, 3, 4, Kapstein, 2020, 50 mg/kg) is given as “ineffective”. Moreover, in series [2], the “Inhibition … (qPCR of viral mRNA)” value is recorded as “lack of efficacy”. Besides, the “lung drug concentrations, IT versus IV solution” value in series [9] was “higher lung drug concentrations”. The “effect upon viral loads at days 3, 5, or 7, or disease pathology through post-mortem on day 7” value in [7] (setting [10]) and in series [7] (setting [11]) was “ineffective” in each case.

Consider `CCN(CC)CCCC(C)Nc1ccnc2cc(Cl)ccc12.O=P(O)(O)O.O=P(O)(O)O` (stereo not drawn) [CQ phosphate], for which the “Inhibition … (qPCR of viral mRNA)” value in [2] was “lack of efficacy”.

Take `CCNCc1cc(Nc2ccnc3cc(Cl)ccc23)ccc1O` [DEAQ, desethylamodiaquine]: the IC50 in series [3] is 8.5 µM. The “Log P” value in series [6] is 2.3.
